Data from patent US20240425555A1, “MUTANT BRD4 POLYPEPTIDES AND METHODS OF USE THEREOF” (Northwestern University, priority 2023, published 2024).
Blank lines part the entries; values can stand above or below the compound they belong to.

Experiments:
Pol II pausing [1] = assay: total Pol II ChIP-seq upon auxin, JQ1, dBET6 or NVP-2 treatment; format: cell-based, human; conditions: for Pol II pausing (Pol II occupancy profile): auxin 500 uM, JQ1 1 uM, dBET6 250 nM, 3 h
Source text: FIG. 1A illustrates the updated BRD4-IAA7 degron line. The F-box protein AtAFB2 was integrated into the C terminus of the BRD4 locus under the control of an independent promoter. […] These treatment concentrations/durations are relevant to all of FIG. 1. […] The gene list (N=6481) in this analysis is used throughout the study (except for FIGS. 3H-J). FIG. 1D illustrates the estimated Cumulative Density Function (ECDF) of pause release ratios (PRR, reported as log 2 fold change) for auxin treatment vs untreated control. The PRR is the ratio of Pol II occupancy within gene bodies to its occupancy at promoters. A leftward shift of the curve indicates an increase in the frequency and/or duration of promoter-proximal pausing, while a rightward shift indicates reduced pausing and/or more efficient release into gene bodies.
FIGS. 8A-8E. collectively illustrate the differences in Pol II pausing induced by BRD4 depletion and bromodomain inhibition, related to FIG. 1. FIG. 8A illustrates the western blot showing the expression of HA-tagged AtAFB2 and the auxin-induced degradation of V5-tagged BRD4 using anti-tag antibodies. FIG. 8B illustrates the western blot comparing the BRD4 protein expression level and degradation kinetics of the previously published BRD4-AID degron to those of the BRD4-IAA7 degron used in this study 12. Note: in FIGS. 8A and 8B, the BRD4-IAA7 clone used is D4 (Hygromycin selected); it is G3 (Neomycin selected) otherwise in the study. […] FIG. 8E illustrates the track examples of Pol II ChIP-seq signal at the HSPA8 and GAPDH loci upon NVP-2 treatment (2 h) and corresponding heatmaps showing Pol II occupancy profiles and fold change in occupancy vs control upon NVP-2 treatment.
To specifically deplete BRD4 without affecting other BET proteins, we generated an updated BRD4 degron line by modifying the published miniIAA7 degron system (hereafter BRD4-IAA7) to reduce basal degradation seen with AID degron-tagged BRD4^30 (FIGS. 1A and 8A).
DLD1 cells were crosslinked with 15 ml 1% PFA (ThermoFisher, #28908) in PBS on 15 cm plates for 10 minutes at RT and quenched by the addition of 2 ml 2.5M glycine followed by shaking for 5 minutes. Crosslinked cells were collected by scraping. Chromatin sonication was performed for 10 minutes using a Covaris E200 set to 10% duty factor, 200 cycles per burst, and 140 peak intensity power. For endogenous protein ChIP, 10-20% of mouse embryonic fibroblasts (MEF) chromatin (prepared the same way as in DLD1 cells) was added to each sample as a spike-in control. For overexpressed protein ChIP, such as GFP-ChIP, 20 ng spike-in chromatin (Active Motif, #53083) and 2 ug spike-in antibody (Active Motif, #61686) were added to each sample. Immunoprecipitation was carried out at 4° C. overnight using 5ul of Rpb1 (Cell Signaling Technology, #D8L4Y), 5ul of Ser2p (Active Motif, #61984), 10ul of CCNT1 (Cell Signaling Technology, #81464), 10ul of CDK9 (Santa Cruz Biotechnology, #sc-13130 X) antibodies, or 200ul of a cocktail consisting of 50ul of each GFP antibody (DSHB, #GFP-G1, #GFP-12A6, #GFP-12E6, #GFP-8H11). Immune complexes were enriched with Protein G-coupled Dynabeads (Invitrogen, #10004D) at 4° C. for >=4 h, and incubated with proteinase K (Roche, #3115828001) to reverse crosslink at 65° C. overnight. Eluted DNA was purified with the QIAquick PCR Purification Kit (Qiagen, #28106), and libraries were prepared using the KAPA HTP library preparation kit (Roche, #07961901001) for sequencing on the NovaSeq 6000.
Reads were aligned to hg38 with bowtie 1/250. Genes (N=6,481) with pausing site and TES annotation were obtained from a previously published study51. Promoter regions were designated as spanning from 100 bp upstream to 300 bp downstream of the pausing site. Gene body regions were designated as spanning from 300 bp downstream of the pausing site to the TES. FeatureCounts 2.0.152 was used to calculate the total mapped reads from Pol II ChIP-seq at promoters and within gene bodies. […]

BRD4 = BRD4 (UniProt O60885+Q38825); assay: Western blot of BRD4 degradation in BRD4-IAA7 degron line; format: cell-based, human; conditions: BRD4-IAA7 DLD1 degron line; auxin 500 uM 2 or 3 h; JQ1 1 uM or dBET6 250 nM 3 h
BRDT = biological target: T1, BRDT (Homo sapiens, UniProt Q58F21); assay: Western blot of dBET6 treatment in NCIH2009 cells (BRDT); format: cell-based; conditions: dBET6 3 h
T1 construct: endogenous in cells; host or cells: NCIH2009
Source text: FLAG antibody (#F1804) was obtained from Millipore Sigma. […] H3 antibody was generated in-house.

Pol II pausing [2] = conditions: reference 21; cited from earlier work
Ser2P = Ser2P ChIP-seq upon JQ1 or dBET6 treatment; format: cell-based, human; conditions: BRD4-IAA7 cells; series concentration of JQ1 or 250 nM dBET6, 3 h
Protocol: FIGS. 5A-5J collectively illustrate the identification of a distinct BRD4-PTEFb population, which is active but not histone acetylation-bound. FIG. 5A illustrates the track examples for AID ChIP-seq in the BRD4-AID line and CCNT1 ChIP-seq in the BRD4-IAA7 line with/without auxin treatment (3 h). H3K27ac ChIP-seq signal in the BRD4-AID line is shown for comparison. FIG. 5B illustrates the heatmap showing the genome-wide BRD4 and CCNT1 occupancy profile and the corresponding fold change upon auxin treatment for the conditions in A. Genes ranked by BRD4 signal in control. FIG. 5C illustrates the scatter plot showing the relative promoter density of CCNT1 vs BRD4, calculated by the log 2RPKM of the ChIP-seq signals at the regions flanking (±1 Kb) the Pol II pausing sites. FIG. 5D illustrates the track examples for GFP ChIP-seq signal upon induction of GFP-tagged BRD4-FL or the indicated mutants (left). Heatmap showing the genome-wide fold changes of the GFP-tagged BRD4 mutants relative to the vector (right). The endogenous BRD4 was depleted by auxin treatment (3 h) in all samples. Genes are ranked by GFP signal in the GFP-BRD4-FL condition. FIG. 5E illustrates the track examples for CCNT1 ChIP-seq signal upon endogenous BRD4 depletion and rescue with indicated GFP-tagged mutants (left). Heatmap showing the genome-wide CCNT1 fold changes (right). […]

PTEFb [3] = biological target: T2, PTEFb (Homo sapiens, UniProt O60563+P50750); assay: BRD4 IP / GFP IP competition for PTEFb by C46 or p46; format: binding; design: endogenous in cells; lysate of unnamed cells for the p46 addition
T2 sequence (P50750 whole entry): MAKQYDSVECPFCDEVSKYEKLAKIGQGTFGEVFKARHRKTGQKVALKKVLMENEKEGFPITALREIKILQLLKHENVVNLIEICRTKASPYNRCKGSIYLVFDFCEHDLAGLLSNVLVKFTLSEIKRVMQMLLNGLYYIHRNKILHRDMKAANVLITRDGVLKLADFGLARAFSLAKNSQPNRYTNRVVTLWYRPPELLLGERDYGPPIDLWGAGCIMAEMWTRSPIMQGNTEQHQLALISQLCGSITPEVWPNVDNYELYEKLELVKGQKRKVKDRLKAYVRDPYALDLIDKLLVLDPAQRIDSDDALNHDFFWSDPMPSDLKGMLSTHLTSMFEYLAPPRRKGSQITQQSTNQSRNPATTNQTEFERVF
T2 sequence (O60563 whole entry): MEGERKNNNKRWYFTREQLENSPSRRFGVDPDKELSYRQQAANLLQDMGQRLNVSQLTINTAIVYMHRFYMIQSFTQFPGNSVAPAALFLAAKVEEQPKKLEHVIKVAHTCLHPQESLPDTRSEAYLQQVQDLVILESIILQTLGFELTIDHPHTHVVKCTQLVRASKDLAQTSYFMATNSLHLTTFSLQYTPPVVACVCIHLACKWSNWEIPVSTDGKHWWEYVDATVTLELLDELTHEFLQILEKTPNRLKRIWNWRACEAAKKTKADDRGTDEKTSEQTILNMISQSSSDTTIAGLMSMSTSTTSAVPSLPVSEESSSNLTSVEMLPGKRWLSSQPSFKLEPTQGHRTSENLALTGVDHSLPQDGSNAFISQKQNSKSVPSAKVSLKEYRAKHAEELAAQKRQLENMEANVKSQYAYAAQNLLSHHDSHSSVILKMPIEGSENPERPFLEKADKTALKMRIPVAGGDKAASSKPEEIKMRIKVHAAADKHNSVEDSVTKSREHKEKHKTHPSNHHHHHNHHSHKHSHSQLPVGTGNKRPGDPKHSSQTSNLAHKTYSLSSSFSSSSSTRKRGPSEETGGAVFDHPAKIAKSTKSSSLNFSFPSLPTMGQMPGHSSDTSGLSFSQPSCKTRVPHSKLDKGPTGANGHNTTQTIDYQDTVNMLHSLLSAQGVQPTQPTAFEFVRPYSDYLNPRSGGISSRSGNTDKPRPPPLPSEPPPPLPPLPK
Source text: FIGS. 14A-14G. Identification of essential PTEFb binding sites in BRD4's C-terminus. FIG. 14A. Schematic showing the constructs of Dox inducible GFP-tagged BRD4 C terminus mutants with residue length indicated. Western blot of GFP IP for these two mutants upon Dox induction for 2 days showing both mutants can interact with PTEFb. FIG. 14B. […] Auxin treatment serves as a positive control for the loss of endogenous BRD4. FIG. 14C. […] FIG. 14D. […] FIG. 14E. Schematic showing the sequence alignment of the 46 residues in the C terminus of BRD4 and BRDT as well as the alanine scanning strategy to mutate each site for 3 amino acids at one time. FIG. 14F. Comparison of the ability to pull down PTEFb by Bio-p46/Bio-p46* and Biotin-labeled BRDT C terminus 46 residues (Bio-pT46) as well as Biotin-labeled BRD4 C terminus 46 residues with each of the sites mutated to AAA as shown in E (Bio-p1 to p7). FIG. 14G. Western blot of GFP IP showing the amount of PTEFb binding to GFP-tagged BRD4 C terminus fragment of 340 residues (WT) and its mutants with each of the sites mutated to AAA as indicated in E (A-H).
FIGS. 15A-15E. FIG. 15A. Spectral counts for BRD4, CCNT1, and CDK9 from the GFP IP for the GFP-tagged BRD4 C terminus fragment of 340 residues (C) and 46 residues (C46) followed by mass spectrometry. […] Quantitative curves of PTEFb signal intensity from western blot in D against increasing concentration of p46. […]

PTEFb [4] = biological target: T2, PTEFb; assay: GFP IP-MS and GFP IP western blot of GFP-tagged BRD4 constructs; format: binding; conditions: GFP-tagged; for binding to PTEFb (western blot for GFP IP): Dox 2 days
PTEFb [5] = biological target: T2, PTEFb; assay: Peptide titration: p46 competition in Bio-p46 pull down assay; format: binding; design: endogenous in cells
Source text: FIGS. 15A-15E. FIG. 15A. Spectral counts for BRD4, CCNT1, and CDK9 from the GFP IP for the GFP-tagged BRD4 C terminus fragment of 340 residues (C) and 46 residues (C46) followed by mass spectrometry. FIG. 15B. Western blot validation for the mass spectrometry using the remaining GFP IP samples from one of the replicates. FIG. 15C. […] FIG. 15D. […] FIG. 15E. Quantitative curves of PTEFb signal intensity from western blot in D against increasing concentration of p46.
To pull down PTEFb by Biotin-labeled peptide, cells were lysed with Triton X-100 lysis buffer as used for GFP IP. Biotin-labeled peptides were pre-incubated with streptavidin beads at room temperature for 30 min. Conjugated beads were then washed with lysis buffer twice before adding to the cell lysate. Pulldown was carried out at 4° C. by rotating for >=4 h, followed by 5 times wash with lysis buffer. To elute, 4× Laemmli sample buffer was added and boiled for 10 min. For the peptide titration experiment, a series of concentration of p46 was pre-incubated with same amount of cell lysate for 1 h at 4° C. Same amount of Bio-p46 conjugated streptavidin beads were used to pull down PTEFb for >=4 h. PTEFb signal intensity from western blot was determined by Image Lab from Bio-Rad.

binding to PTEFb (western blot for GFP IP) (PTEFb [4]): bind to PTEFb strongly
Compound: C85: BRD4 C terminus 85aa expressed in cells with a GFP tag

amount of PTEFb bound to endogenous BRD4 or overexpressed GFP-tagged C46 (PTEFb [3]; p46 added to cell lysate prior to IP): significantly decreased | binding of PTEFb to Bio-p46 (PTEFb [5]; cell lysate pre-incubated with increasing concentration of p46): decreased binding of PTEFb | "IC50" (PTEFb [5]; competition between free and biotin-labelled peptides, in vitro): hundred nanomole level
Compound: p46: synthetic peptide of the BRD4 C terminus 46 residues

The next lines start with the compound.

Compound: O=C(O)Cc1c[nH]c2ccccc12 [auxin]
Pol II pausing (Pol II occupancy profile) (Pol II pausing [1]; BRD4-IAA7 cells): inducing pausing at the majority of Pol II-transcribed genes | BRD4 degradation (western blot) (BRD4): rapidly degraded

Compound: Cc1sc2c(c1C)C(c1ccc(Cl)cc1)=N[C@@H](CC(=O)NCCCCCCCCNC(=O)COc1cccc3c1C(=O)N(C1CCC(=O)NC1=O)C3=O)c1nnc(C)n1-2 (stereo partly drawn) [dBET6]
degradation of endogenous BRDT (BRDT): degraded | effect on Pol II pausing (RNA-seq, NET-seq) (Pol II pausing [2]): dramatic, genome-wide increase in paused Pol II at promoters | Ser2P ChIP-seq signals (Ser2P): Ser2P signal fade away | Pol II pausing (Pol II occupancy profile) (Pol II pausing [1]; BRD4-IAA7 cells): inducing pausing at the majority of Pol II-transcribed genes | gene-by-gene log 2PRR correlation with auxin treatment (Pol II pausing [1]; BRD4-IAA7 cells, scatter plot): much stronger

Compound: C46: BRD4 C terminus 46aa (SEQ ID NO: 1) expressed in cells with a GFP tag
competition with endogenous BRD4 for PTEFb (endogenous BRD4 IP) (PTEFb [3]; C46 expressed in BRD4-V5-IAA7 degron line): competes with the endogenous BRD4 for PTEFb | interaction with PTEFb (GFP IP-MS) (PTEFb [4]; Dox 50 nM 2 days): does not impair its interaction with PTEFb | binding to PTEFb (western blot for GFP IP) (PTEFb [4]): bind to PTEFb strongly

Compound: NVP2
Pol II pausing genome-wide upon CDK9 inhibition (Pol II pausing [1]; DLD1 cells, NVP-2 treatment 2 h): induced strong Pol II pausing genome-wide
